The results in this text go back to US20200022964A1, “COMPOSITIONS AND METHODS FOR TREATMENT OF INFLAMMATORY AUTOIMMUNE DISEASES” (New York University, priority 2018, published 2020).

Assay [1] concerns NF-κB p65. To be noted: TNF-α 10 ng/mL; FFD 10 μM, TFD 1 μM.
Assay [2] deals with cPLA2. The following applies: series of protease to cell lysate ratios. Here is the method:
(§1) DARTS assay. Drug affinity responsive target stability (DARTS) assay was performed based on previously reported methods^4. In brief, cell lysate was extracted by M-PER™ Mammalian Protein Extraction Reagent (78501, Thermo Fisher), briefly centrifuged, and mixed with drugs or DMSO for 1 hour on a rotator. Pronase (P5147, Sigma-Aldrich) was added in the mixture for 15 minutes at room temperature. Digestion was stopped by 10 minute incubation with protease inhibitor cocktail on ice. Samples were boiled in SDS loading buffer for SDS-PAGE and Western blot.
(§2) Site-directed mutagenesis.
(§3) Construction of plasmids. The construction of cPLA2 mutant plasmids was based on serial C-terminal and N-terminal deletion of the amino acid sequences associated with functional structure. Each plasmid carried a flag tag. The constructions were: full length cPLA2 (1-750), cPLA2 (126-750), cPLA2 (406-750), cPLA2 (1-479), and cPLA2 (1-144).

Assay [3] has as its target cPLA2 (Homo sapiens, UniProt P47712). The following applies: 293 T cells transfected with Flag-tagged mutants; N-terminal C2D and CD1 deletion. Here is the method:
as §1, §2, §3

Assay [4] deals with p38 or ERK1/2. Kind of assay: Western blot of TNF activated phosphorylation of p38 and ERK1/2 in BMDMs. The class given is cell-based, mice. The following applies: TNF-α 10 ng/mL; FFD 10 μM. Here is the method: (§4) Primary bone marrow derived macrophages (BMDMs) extraction. BMDMs were isolated from C57BL/6 and TNF-tg mice. After mice were sacrificed by cervical dislocation, the tibia and femur were isolated and both ends of the bones were cut to open the medullary cavity. Bone marrow cells were collected by centrifuge at 13000 g for 90 seconds and seeded in 6-well plates. Prior to their use in experiments, M-CSF (10 ng/ml, 576406, Biolegend) was added for 6 days to the BMDM culture medium.
(§5) Western blot. After protein samples were prepared, samples were separated by SDS-PAGE and transferred to a nitrocellulose (NC) membrane (162-0115, BIO-RAD) using a wet transfer system. Membrane was blocked in 5% (w/v) non-fat milk in TBST for half an hour at room temperature, followed by incubation with appropriate primary antibody overnight at 4° C. After washing, appropriate secondary antibody was added for 1 hour at room temperature. The bands on the membrane were developed by chemiluminescent (ECL) substrate and visualized by GelDoc system.
In general terms: A western blot detects proteins with antibodies after separation by electrophoresis.

For assay [5], the system named is IκB-α. Kind of assay: Phosphorylation of IκB-α in vivo (data not shown).
For assay [6], the target named is T1, cPLA2 (Mus musculus, UniProt P47713).
T1 sequence (P47713 1-748): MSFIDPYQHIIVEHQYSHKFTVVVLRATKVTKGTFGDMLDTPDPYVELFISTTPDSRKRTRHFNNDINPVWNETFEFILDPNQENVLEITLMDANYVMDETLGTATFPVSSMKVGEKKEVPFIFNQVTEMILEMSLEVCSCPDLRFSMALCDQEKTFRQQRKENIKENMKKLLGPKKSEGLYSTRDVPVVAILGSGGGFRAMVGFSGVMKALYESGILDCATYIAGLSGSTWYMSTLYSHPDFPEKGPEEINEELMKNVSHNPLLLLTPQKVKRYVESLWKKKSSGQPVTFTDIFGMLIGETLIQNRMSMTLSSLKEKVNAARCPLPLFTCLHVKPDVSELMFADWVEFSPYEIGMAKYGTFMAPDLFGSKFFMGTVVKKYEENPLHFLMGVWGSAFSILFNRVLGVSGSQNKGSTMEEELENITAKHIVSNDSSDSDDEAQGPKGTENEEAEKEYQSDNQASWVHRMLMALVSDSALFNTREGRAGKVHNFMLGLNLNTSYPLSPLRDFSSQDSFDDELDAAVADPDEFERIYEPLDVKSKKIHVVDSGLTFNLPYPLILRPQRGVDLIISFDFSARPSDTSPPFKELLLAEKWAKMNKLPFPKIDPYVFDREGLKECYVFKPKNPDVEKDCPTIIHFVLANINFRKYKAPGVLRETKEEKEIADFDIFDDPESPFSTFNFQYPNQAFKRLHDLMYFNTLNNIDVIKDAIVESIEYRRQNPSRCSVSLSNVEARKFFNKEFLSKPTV
The experiment in a line: Western blot of TNF activated phosphorylation of cPLA2 on Ser-505 in BMDMs. Also on record: endogenous in cells; host or cells: mouse bone marrow derived macrophages (BMDMs). The class given is cell-based, mice. The following applies: TNF-α 10 ng/mL; FFD 10 μM. Here is the method:
as §4, §5

Assay [7] concerns TNF-α-activated NF-κB reporter gene. Kind of assay: NF-κB luciferase reporter in control and cPLA2 knockout Raw264.7 cells. Format: cell-based. On the procedure:
Screening FDA approved drugs in vitro. NF-κB-bla THP-1 cell line (K1662, Invitrogen) was cultured in 96-well plates and FDA approved drugs (10 μM, L1300, Selleckchem) were added and cultured overnight. Next day, cells were incubated with TNF-α (10 ng/ml, PHC3015, Invitrogen) for 6 hours and LiveBLAzer™ FRET-B/G Loading Kit with CCF2-AM (K1095, Invitrogen) was used to detect the β-lactamase activity via SpectraMax i3x system (5025027A Molecular Devices) with excitation wavelength at 409 nm and emission wavelengths at 520 nm or 470 nm. This process was performed in triplicate. Subsequently, the drugs from first screening that could inhibit TNF-α induced NF-κB activity underwent further screening by NF-κB luciferase assay. After transfection with NF-κB luciferase reporter gene and Renilla plasmids for 8 hours, cells were treated with drugs (10 μM) overnight, followed by TNF-α (10 ng/ml) stimulation for 6 hours, then bioluminescence was measured by Dual-Luciferase® Reporter Assay kit (E1910, Promega). The data were analyzed by Graphpad Prism software (GraphPad Software, San Diego, Calif.).
Knock out of cPAL2 by CRISPR-Cas9. Knockout cells were generated in accordance with a previously published protocol. gRNA was inserted into the lentiCRISPR v2 vector. Packaging the inserted vector into lentivirus was completed by co-transfecting the lentiCRISPR v2, VSVG and ΔR6.7 in 293T cells. After packaging, we transfected the virus into RAW264.7 cells over 8 hours. Puromycin (2 μg/ml) was used to select the stably transfected RAW264.7 cells
For orientation: In a reporter assay the amount or activity of a reporter protein is the signal.

Chain of cPLA2 (Homo sapiens, UniProt P47712) (P47712 126-749): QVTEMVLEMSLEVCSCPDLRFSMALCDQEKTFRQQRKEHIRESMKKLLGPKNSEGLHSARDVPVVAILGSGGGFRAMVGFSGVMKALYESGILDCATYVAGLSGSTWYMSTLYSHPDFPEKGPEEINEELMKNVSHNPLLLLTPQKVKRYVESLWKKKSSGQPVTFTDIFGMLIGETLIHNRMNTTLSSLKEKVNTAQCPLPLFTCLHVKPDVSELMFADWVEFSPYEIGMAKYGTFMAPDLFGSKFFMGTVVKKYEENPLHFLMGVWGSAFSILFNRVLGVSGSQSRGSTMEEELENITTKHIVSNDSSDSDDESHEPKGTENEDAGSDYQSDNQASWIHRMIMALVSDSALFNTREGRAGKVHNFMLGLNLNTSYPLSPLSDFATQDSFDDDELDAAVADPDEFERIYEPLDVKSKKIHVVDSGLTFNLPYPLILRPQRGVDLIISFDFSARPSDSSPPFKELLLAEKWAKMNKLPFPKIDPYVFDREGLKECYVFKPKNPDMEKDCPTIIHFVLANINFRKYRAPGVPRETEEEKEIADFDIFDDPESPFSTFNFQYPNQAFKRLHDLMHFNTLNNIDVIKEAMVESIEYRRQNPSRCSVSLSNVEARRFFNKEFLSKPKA

For `CC(C)(C(=O)O)c1ccc(C(O)CCCN2CCC(C(O)(c3ccccc3)c3ccccc3)CC2)cc1` (stereo not drawn) [fexofenadine], the “TNF-α-induced nuclear translocation and DNA-binding activity of p65” value in assay [1] is “inhibited”. Besides, in assay [2], the “protection of cPLA2 from protease (DARTS, Western blot)” value is reported as “protected”. For the same compound, the “DARTS protective effects on cPLA2 (126-750) and cPLA2(406-750)” value in assay [3] is on record as “retained protective effects”. Also, the “phosphorylation of p38 or ERK1/2” value in assay [4] is “did not affect”. For the same compound, the “phosphorylation of NF-κB p65 upstream mediator IκB-α in vivo” value in assay [5] is “inhibited”. The “phosphorylation of cPLA2 on Ser-505” value in assay [6] is reported as “abolished”. Also, the “inhibition of TNF-α-activated NF-κB reporter gene in cPLA2 knockout cells” value in assay [7] (cPLA2 knockout cells) was “lost its inhibition”. Moreover, the “anti-TNF/NF-κB activity in cPLA2 knockout cells transfected with cPLA2 S505A” value in assay [7] (point mutant Ser-505-Ala) is “could not rescue”. In addition, in assay [7] (re-established expression of cPLA2), the “anti-TNF/NF-κB activity in cPLA2 knockout cells transfected with a cPLA2 expression plasmid” value is on record as “reinstated”.
